2 molecules from PMC6043372 (Journal of medicinal chemistry, 2018) can be followed below.

In the assay the test system is Mtb H37Rv. In kind it is cell-based, Mycobacterium tuberculosis H37Rv.

Read-outs that look alike come from different tables or passages of the source. Bounds are passed on as bounds.

Take `CCCCCCCCn1cc(CN2CCC3(CC2)OCCCO3)c2ccc(OC)cc21` [Compound 12]: the “spontaneous resistance mutation frequency” value is recorded as 10^−8 /CFU.
As for `CCCCCCCCn1cc(CN2CCCCCC2)c2c(F)cccc21` [Compound 71, 3-(azepan-1-ylmethyl)-4-fluoro-1-octyl-1H indole], for the setting “Mtb H37Rv, 12 at 4× and 8× MIC90”, the “spontaneous resistance mutation frequency” value is on record as < 10^−9 /CFU.
